For one test, the target named is T1, purified HBS (Homo sapiens, UniProt P68871+P69905, E7V).
T1 construct: HbS was purified by a modified procedure; from tissue; host or cells: blood of homozygous sickle cell patients (CHORI); for the polymerization assay purified by the CRO VIRUSYS
Kind of test: Polymerization assay (delay time of HbS polymerization). As to conditions: percent delay (% DT) vs HBS alone; 50 μM purified HBS, 1.8 M potassium phosphate pH 7.4. In kind it is biochemical, human (homozygous sickle cell patients). How it is done: Polymerization assays are carried out in vitro using purified HBS exchanged into 1.8 M potassium phosphate buffer at pH 7.4. Using a slightly modified protocol (Antonini and Brunori, 1971), HbS is purified by the CRO VIRUSYS, from blood obtained from homozygous sickle cell patients through the Hemoglobinopathy Center at Children's Hospital Oakland Research Institute (CHORI) with Institutional Review Board approval. Compounds are prepared in 100% DMSO and a desired amount is added to 50 μM of purified HBS at a final DMSO concentration of 0.3%. Final potassium phosphate concentration is adjusted to 1.8 M using a combination of 2.5 M potassium phosphate stock solution and water at pH 7.4. The reaction mixture is incubated for an hour at 37° C. and then transferred into a 24-well plate for deoxygenation in a glove box containing 99.5% nitrogen and 0.5% oxygen. The 24-well plate is not covered and incubated at 4° C. on a plate cooler inside the glove box for one and a half hours. Fifty μL of the reaction mixture is transferred into a 96-well plate and the absorbance at 700 nm is measured every minute for one hour at 37° C. in a plate reader located inside the glove box. A plot of the absorbance against time is fitted using a Boltzman sigmoidal fit and the delay time (from zero to time at half Vmax) is measured. To compare and rank compounds, delay times are expressed as percent delay (% DT), which is defined as the difference in delay times for HBS/compound and HBS alone multiplied by 100 and divided by the delay time for HBS alone.
Compounds listed below have been tested in the polymerization assay. Activity ranges are defined by the number of dagger (†) symbols indicated. † denotes activity ≥40% but ≤80%; †† denotes activity >80% but ≤120%; ††† denotes activity >120% but ≤140%; †††† denotes activity >160%.

Test [1] concerns the target T2, purified Hemoglobin S (HbS) (Homo sapiens, UniProt P68871+P69905, E7V).
T2 construct: HbS was purified by a modified procedure; from tissue; host or cells: blood of homozygous sickle cell patients (CHORI); for the polymerization assay purified by the CRO VIRUSYS
Kind of test: Modulation of hemoglobin oxygen affinity: oxygen equilibrium curves (HEMOX) in purified HbS. In kind it is biochemical, human (homozygous sickle cell patients). As to conditions: compound at 30 μM; 25 μM purified HbS, 45 min at 37° C. The method in brief: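 HbS from homozygous sickle cell patient blood, 25 μM in HEMOX buffer pH 7.4, incubated 45 min at 37° C with compound (30 μM unless noted). Air-saturated then deoxygenated with N2; p50 from Hill fit; delta p50% = (control p50 − treated p50)/control p50 × 100.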

Another test addresses T3, HbS/A (Homo sapiens, UniProt P68871+P69905, E7V).
T3 construct: A mixture of HbS/A was purified from blood; from tissue; host or cells: blood of homozygous sickle cell patients (CHORI)
Kind of test: R/T assay (relaxed-to-tense transition under deoxygenated conditions). As to conditions: 3 μM HbS/A, % R remaining vs no treatment. In kind it is biochemical, human (homozygous sickle cell patients). The method in brief: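 Purified HbS/A (3 μM final) incubated 1 hr at 37° C with compounds (3 μM to 100 μM) in potassium phosphate buffer pH 7.4 with 30 μM DPG, then deoxygenated under N2 with 300–700 nm spectra every 5 min for 2 hours. Delta R is % R state retained versus untreated, by linear regression over all wavelengths.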

A further test deals with whole blood. Kind of test: Whole blood assay: oxygen equilibrium curves of whole blood. In kind it is cell-based, human (homozygous sickle cell patients). As to conditions: compound at 1000 μM; hematocrit 20%, 1 hour at 37° C. The method in brief:
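Homozygous sickle cell patient blood, hematocrit 20% in autologous plasma, incubated 1 h at 37° C with or without compound (1000 μM unless noted). Diluted into Hemox buffer pH 7.4, oxygenated then deoxygenated with nitrogen; OEC fitted to Hill model for p50, reported as delta p50%.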

The structures appear in SMILES notation.

`COC(=O)c1ccc(COc2cccnc2C=O)cc1` [Compound 164]: on purified HBS, the “% delta Delay” value is reported as “††† (activity >120% but ≤140%)”. Besides, the “delta p50%” value in test [1] was “++ (a delta p50% of between 30 and 50)”. Also, the “delta R” value at HbS/A (compound at 9 μM) is “++ (a delta R of between 30 and 50)”. The “delta p50% Values for Whole Blood Assay” value with whole blood is “++ (a delta p50% of between 30 and 50)”.
As for `Cc1ccc(OCc2ccc(C(=O)O)cc2)c(C=O)n1` [Compound 165, 4-(((2-formyl-6-methylpyridin-3-yl)oxy)methyl)benzoic acid], the “% delta Delay” value on purified HBS is reported as “††† (activity >120% but ≤140%)”. In test [1], the “delta p50%” value was “++ (a delta p50% of between 30 and 50)”. The “delta R” value on HbS/A (compound at 9 μM) was “+ (a delta R of between 0 and 30)”. The “delta p50% Values for Whole Blood Assay” value with whole blood was “+ (a delta p50% of between 0 and 29)”.
Turning to `O=Cc1ccncc1OCc1cccc(C(=O)O)c1` [Compound 169, 3-(((4-formylpyridin-3-yl)oxy)methyl)benzoic acid], at purified HBS, the “% delta Delay” value was “††† (activity >120% but ≤140%)”. In test [1], the “delta p50%” value is “++ (a delta p50% of between 30 and 50)”. Moreover, the “delta R” value at HbS/A (compound at 9 μM) is “++ (a delta R of between 30 and 50)”. The “delta p50% Values for Whole Blood Assay” value with whole blood was “++ (a delta p50% of between 30 and 50)”.
As for `CCCn1nccc1-c1ncccc1COc1cnc(OC)cc1C=O` [Compound 173, 2-methoxy-5-((2-(1-propyl-1H-pyrazol-5-yl)pyridin-3-yl)methoxy)isonicotinaldehyde], the “% delta Delay” value on purified HBS was “† (activity ≥40% but ≤80%)”. The “delta p50%” value in test [1] is “+++ (a delta p50% of 50 or greater)”. The “delta R” value at HbS/A (compound at 30 μM) is “+++ (a delta R of 50 or greater)”. The “delta p50% Values for Whole Blood Assay” value with whole blood is “+++ (a delta p50% of 50 or greater)”.
For `COc1cc(C=O)c(OCc2cccnc2-c2ccnn2CC(F)(F)F)cn1` [Compound 174, 2-methoxy-5-((2-(1-(2,2,2-trifluoroethyl)-1-pyrazol-5-yl)pyridin-3-yl)methoxy)isonicotinaldehyde], at purified HBS, the “% delta Delay” value is listed as “†† (activity >80% but ≤120%)”. The “delta p50%” value in test [1] was “+++ (a delta p50% of 50 or greater)”. Moreover, the “delta R” value on HbS/A (compound at 30 μM) was “++ (a delta R of between 30 and 50)”. In the test on whole blood, the “delta p50% Values for Whole Blood Assay” value is on record as “+++ (a delta p50% of 50 or greater)”.
As for `COc1cc(C=O)c(OCc2cccnc2-c2ccnn2CC(F)F)cn1` [Compound 175, 5-((2-(1-(2,2-difluoroethyl)-1H-pyrazol-5-yl)pyridin-3-yl)methoxy)-2-methoxyisonicotinaldehyde], the “% delta Delay” value on purified HBS was “†† (activity >80% but ≤120%)”. In addition, the “delta p50%” value in test [1] is recorded as “+++ (a delta p50% of 50 or greater)”. Also, on HbS/A (compound at 30 μM), the “delta R” value is “++ (a delta R of between 30 and 50)”. Also, in the test with whole blood, the “delta p50% Values for Whole Blood Assay” value was “+++ (a delta p50% of 50 or greater)”.
For `CC(C)n1nccc1-c1ncccc1COc1cccnc1C=O` [Compound 176, 3-((2-(1-isopropyl-1H-pyrazol-5-yl)pyridin-3-yl)methoxy)picolinaldehyde], the “% delta Delay” value at purified HBS is reported as “† (activity ≥40% but ≤80%)”. Further, the “delta p50%” value in test [1] is “+++ (a delta p50% of 50 or greater)”. In addition, the “delta R” value on HbS/A (compound at 9 μM) is “+ (a delta R of between 0 and 30)”. Further, the “delta p50% Values for Whole Blood Assay” value in the test with whole blood was “+++ (a delta p50% of 50 or greater)”.
In the case of `Cc1ccc(OCc2cccnc2-c2ccnn2C(C)C)c(C=O)n1` [Compound 177, 3-((2-(1-isopropyl-1H-pyrazol-5-yl)pyridin-3-yl)methoxy)-6-methylpicolinaldehyde], the “% delta Delay” value at purified HBS is reported as “† (activity ≥40% but ≤80%)”. In addition, the “delta p50%” value in test [1] was “+++ (a delta p50% of 50 or greater)”. At HbS/A (compound at 3 μM), the “delta R” value is “+ (a delta R of between 0 and 30)”. The “delta p50% Values for Whole Blood Assay” value in the test on whole blood is on record as “+++ (a delta p50% of 50 or greater)”.
For `CC(C)n1nccc1-c1ncccc1COc1cnc(OC(F)F)cc1C=O` [Compound 178, 2-(difluoromethoxy)-5-((2-(1-isopropyl-1H-pyrazol-5-yl)pyridin-3-yl)methoxy)isonicotinaldehyde], the “% delta Delay” value on purified HBS was “† (activity ≥40% but ≤80%)”. Further, the “delta p50%” value in test [1] was “++ (a delta p50% of between 30 and 50)”. Also, the “delta R” value at HbS/A (compound at 9 μM) is “+ (a delta R of between 0 and 30)”. Besides, the “delta p50% Values for Whole Blood Assay” value in the test with whole blood was “++ (a delta p50% of between 30 and 50)”.
On to `COCCOc1cc(C=O)c(OCc2cccnc2-c2ccnn2C(C)C)cn1` [Compound 180, 5-((2-(1-isopropyl-1H-pyrazol-5-yl)pyridin-3-yl)methoxy)-2-(2-methoxyethoxy)isonicotinaldehyde], for which the “% delta Delay” value at purified HBS is “† (activity ≥40% but ≤80%)”. In addition, the “delta p50%” value in test [1] is reported as “+++ (a delta p50% of 50 or greater)”. The “delta R” value on HbS/A (compound at 30 μM) is “++ (a delta R of between 30 and 50)”. Further, in the test with whole blood, the “delta p50% Values for Whole Blood Assay” value is “+++ (a delta p50% of 50 or greater)”.
`COc1cc(C=O)c(OCc2nccnc2-c2ccnn2C(C)C)cn1` [Compound 181, 5-((3-(1-isopropyl-1H-pyrazol-5-yl)pyrazin-2-yl)methoxy)-2-methoxyisonicotinaldehyde]: at purified HBS, the “% delta Delay” value is listed as “††† (activity >120% but ≤140%)”. Moreover, the “delta p50%” value in test [1] was “+++ (a delta p50% of 50 or greater)”. Also, at HbS/A (compound at 9 μM), the “delta R” value was “+ (a delta R of between 0 and 30)”. Further, the “delta p50% Values for Whole Blood Assay” value in the test on whole blood is reported as “+++ (a delta p50% of 50 or greater)”.
Take `CC(C)n1nccc1-c1ncccc1COc1cncc(O)c1C=O` [Compound 186, 3-hydroxy-5-((2-(1-isopropyl-1H-pyrazol-5-yl)pyridin-3-yl)methoxy)isonicotinaldehyde]: the “% delta Delay” value at purified HBS is reported as “†††† (activity >160%)”. In addition, the “delta p50%” value in test [1] was “+++ (a delta p50% of 50 or greater)”. Further, the “delta R” value on HbS/A (compound at 30 μM) is listed as “+++ (a delta R of 50 or greater)”. Also, the “delta p50% Values for Whole Blood Assay” value in the test on whole blood is “+++ (a delta p50% of 50 or greater)”.
Turning to `O=Cc1c(O)cncc1OCc1ccccc1` [Compound 187, 3-(benzyloxy)-5-hydroxyisonicotinaldehyde], the “% delta Delay” value on purified HBS is recorded as “†† (activity >80% but ≤120%)”. In addition, in test [1], the “delta p50%” value was “++ (a delta p50% of between 30 and 50)”. Besides, the “delta R” value on HbS/A (compound at 9 μM) is given as “+++ (a delta R of 50 or greater)”. Further, the “delta p50% Values for Whole Blood Assay” value in the test with whole blood was “+ (a delta p50% of between 0 and 29)”.
As for `COc1cc(C=O)c(OCc2cccnc2-c2ccnn2C2CCC2)cn1` [Compound 195, 5-((2-(1-cyclobutyl-1H-pyrazol-5-yl)pyridin-3-yl)methoxy)-2-methoxyisonicotinaldehyde], the “% delta Delay” value on purified HBS is reported as “††† (activity >120% but ≤140%)”. Further, the “delta p50%” value in test [1] is listed as “+++ (a delta p50% of 50 or greater)”. Further, the “delta R” value on HbS/A (compound at 30 μM) is on record as “+++ (a delta R of 50 or greater)”. The “delta p50% Values for Whole Blood Assay” value in the test on whole blood was “+++ (a delta p50% of 50 or greater)”.
Take `COc1cc(C=O)c(OCc2cccnc2-c2ccnn2CC2CCCCC2)cn1` [Compound 197, 5-((2-(1-(cyclohexylmethyl)-1H-pyrazol-5-yl)pyridin-3-yl)methoxy)-2-methoxyisonicotinaldehyde]: the “% delta Delay” value at purified HBS is “† (activity ≥40% but ≤80%)”. Moreover, the “delta p50%” value in test [1] is “++ (a delta p50% of between 30 and 50)”. For the same compound, the “delta R” value on HbS/A (compound at 9 μM) was “+ (a delta R of between 0 and 30)”. Further, the “delta p50% Values for Whole Blood Assay” value in the test with whole blood is “+++ (a delta p50% of 50 or greater)”.

(Values after US10377741B2, “Substituted heteroaryl aldehyde compounds and methods for their use in increasing tissue oxygenation” (Global Blood Therapeutics, Inc., priority 2011, dated 2019).)
